PMC12261321, “Inhibitors of the Bacterioferritin Ferredoxin Complex Dysregulate Iron Homeostasis and Kill and Biofilm-Embedded Cells” (ACS Infectious Diseases, 2025)

Key:
[1] = test system: A. baumannii 5075; experiment: Compound intracellular accumulation in A. baumannii 5075; assay type: cell-based; settings: cells treated with 30 µM compound
Procedure: (§1) Determination of Compound Intracellular Accumulation. These experiments were carri ed out as reported previously,16 with modifications. Starter cultures o f P. aeruginosa PAO1 or A. baumannii 5075 were centrifuged for 10 min at 3148 x g and 4 °C, resuspended in 5 mL of fresh LB, diluted to OD 600 = 0.03 in fresh LB media (250 mL), and then cultured at 35 °C and 220 rpm for 4 h. Th e resultant cul ture was diluted to OD600 = 0.4 in 250 mL LB and centrifuged at 4 °C and 3470 x g for 10 min. The cell pellet was resuspended in 20 mL of PBS and transfer red to a 50 mL conical tube, where it was centrifuged at 4 °C and 3148 x g for 20 min. The cell pellet was resuspended in 15 mL of PBS supplemented with 0.05% (w/v) HPMC and the suspension was divided equally into two new conical tubes. One of th e tubes was treated with 150 µL of DMSO (control), while the second tube was treated with 150 µL of compound in DMSO solution to produce a compound final concentration of 30 µM or 15 µM. The resultant mixtures were incubated at 37 °C and 220 rpm for 15 min, placed on ice for 1 min, and then centrifuged at 3148 x g rpm and 4 °C for 10 min. The cell pellet was resuspended in 7.5 mL of ice -cold PBS and vortexed (10 s, five t imes). 200 µL of the cell suspension was used to plate and enumerate viable cells, and 800 µL of the suspension was lay ered onto 700 µL of chilled silicon oil contained in 1.5 mL Eppendo rf tubes and then centrifuged at 4 °C ( 900 x g) for 10 min, then again at 16,200 x g for 5 min to allow pass ag e of the cell suspension through the silicon oil layer. The aqueous and oil layers were removed, and the cell pellet was washed twice in PBS (800 μ L), each time transferring the cell suspension to a new Eppendorf tube and then centrifuging at 16,200 x g. The cell pellet was lysed in 800 µL methanol by vortexing followed by 10 min incubationat room temperatur e. The lysate suspension was pelleted, the supernatant was transferred to a new Eppendorf tube and then placed into a vacuum concentrator (Eppendorf 5301 Vacufuge) to evaporate the methanol (4 h). The dried […]
(§2) cell lysate was resuspend ed in 600 µL of DMSO and centrifuged at 16,200 x g rpm for 5 min at room temperature.
(§3) The clarified supernatant was titrated with small volumes of 250 µM compound stock, measuring the fluorescen ce after the addition of each aliquot with the aid of a Cary Eclipse Fluorescence Spectrometer (Agilent). The compound concentration was determined utilizing the standard addition method,17 and compound accumulation is reported as nmol compound/1012 CFU/mL. […]
(§4) Eclipse) fluorescen ce sp ectrophotometer. The flu orescen ce intensity of th e treated sample (FI)Tr and that of the untreated control (FI)Un was normalized to the corresponding OD600 and the ratio (FI/OD600)Tr / (F I/ OD600)Un is […]
(§5) The determination for each of the compounds was carri ed out in 5 biological replicates.
(§6) Determination of Siderophores Secreted by A. baumannii . The chromo azurol S (CAS) solution was prepared as previously reported18 with some modifications. The blue dye solution (0.6 g/L CAS ( ACROS Organics), 100 μM FeCl3·6H2O, and 0.73 g/L hexadecyltrimethylammonium bromide (HDTMA, ACROS Organics) was autoclaved and stored in the dark. The MM9-PIPES buffer solution (3 g/L KH2PO4, 5 g/L NaCl, 10 g/L NH4C l, 32.24 g/L piperazine -1,4-bis-2- ethanesulfonic acid (PIPES , Sigma Aldrich), pH 6.75) was sterilized using a 0.22 µm syringe filter (VWR). Prior to every experimen t, blue dye solution (0.5 mL) was mixed with 4.5 mL of MM9-PIPES solution. An overnight culture of A. baumannii 5075 was diluted to OD600 = 0.0001 with modified M63 media (no citric acid) supplemented with 4 μ M Fe and transferred to a 96-well plate, wh ere it was cul tured for 20

[2] = test system: P. aeruginosa PAO1; experiment: Compound intracellular accumulation in P. aeruginosa PAO1; assay type: cell-based; settings: cells treated with 30 µM compound
Procedure: as §1, §2, §3, §4, §5, §6

O=C1NC(=O)c2c(NCc3ccccc3O)cccc21 [Analog 11, 4-((2-Hydroxybenzyl)amino)isoindoline-1,3-dione]
Intracell. Accum, A. baumannii 5075 [1]: 55 ± 15 nmol/1012 CFU

O=C1NC(=O)c2c(NCc3ccc(Br)cc3O)cccc21 [EB-5-61]
Intracell. Accum, P. aeruginosa PAO1 [2]: 197 ± 17 nmol/1012 CFU

Cc1ccc(CNc2cccc3c2C(=O)NC3=O)c(O)c1 [EB-5-69]
Intracell. Accum, P. aeruginosa PAO1 [2]: 52 ± 2 nmol/1012 CFU
Intracell. Accum, A. baumannii 5075 [1]: 193 ± 33 nmol/1012 CFU

Cc1cccc(CNc2cccc3c2C(=O)NC3=O)c1O [EB-5-70]
Intracell. Accum, A. baumannii 5075 [1]: 99 ± 15 nmol/1012 CFU

O=C1NC(=O)c2c(NCc3c(O)cccc3F)cccc21 [EB-5-71]
Intracell. Accum, A. baumannii 5075 [1]: 495 ± 35 nmol/1012 CFU

O=C1NC(=O)c2c(NCc3cccc(Br)c3O)cccc21 [EB-5-73]
Intracell. Accum, P. aeruginosa PAO1 [2]: 34 ± 9 nmol/1012 CFU
Intracell. Accum, A. baumannii 5075 [1]: 201 ± 30 nmol/1012 CFU

O=C1NC(=O)c2c(NCc3cccc(F)c3O)cccc21 [EB-5-80]
Intracell. Accum, P. aeruginosa PAO1 [2]: 11 ± 3 nmol/1012 CFU
Intracell. Accum, A. baumannii 5075 [1]: 44 ± 6 nmol/1012 CFU

O=C1NC(=O)c2c(NCc3cc(F)ccc3O)cccc21 [JAG-5-7]
Intracell. Accum, P. aeruginosa PAO1 [2]: 28 ± 10 nmol/1012 CFU
Intracell. Accum, A. baumannii 5075 [1]: 157 ± 54 nmol/1012 CFU

O=C1NC(=O)c2c(NCc3cc(Cl)ccc3O)cccc21 [KM-5-25, 4-((5-Chloro-2-hydroxybenzyl)amino)isoindoline-1,3-dione]
Intracell. Accum, P. aeruginosa PAO1 [2]: 270 ± 48 nmol/1012 CFU

O=C1NC(=O)c2c(NCc3c(O)cccc3Cl)cccc21 [KM-5-29]
Intracell. Accum, P. aeruginosa PAO1 [2]: 351 ± 25 nmol/1012 CFU
Intracell. Accum, A. baumannii 5075 [1]: 2614 ±134 nmol/1012 CFU

O=C1NC(=O)c2c(NCc3cccc(Cl)c3O)cccc21 [KM-5-30]
Intracell. Accum, P. aeruginosa PAO1 [2]: 42 ± 1 nmol/1012 CFU
Intracell. Accum, A. baumannii 5075 [1]: 169 ± 62 nmol/1012 CFU

O=C1NC(=O)c2c(NCc3cc(Br)ccc3O)cccc21 [KM-5-35, 4-((5-Bromo-2-hydroxybenzyl)amino)isoindoline-1,3-dione]
Intracell. Accum, P. aeruginosa PAO1 [2]: 360 ± 22 nmol/1012 CFU

O=C1NC(=O)c2c(NCc3cc(F)ccc3O)ccc(Br)c21 [SB-16-67]
Intracell. Accum, P. aeruginosa PAO1 [2]: 187 ± 59 nmol/1012 CFU
Intracell. Accum, A. baumannii 5075 [1]: 1173 ± 53 nmol/1012 CFU

O=C1NC(=O)c2c(NCc3cc(Br)cc(F)c3O)cccc21 [SB-16-118]
Intracell. Accum, P. aeruginosa PAO1 [2]: 126 ± 40 nmol/1012 CFU

O=C1NC(=O)c2c(NCc3cc(Br)c(O)cc3O)cccc21 [SB-16-137]
Intracell. Accum, P. aeruginosa PAO1 [2]: 33 ± 1 nmol/1012 CFU
Intracell. Accum, A. baumannii 5075 [1]: 86 ± 23 nmol/1012 CFU
